Laboratory results published in patent publication US7759345B2, “Antitumoral derivatives of ET-743” (priority 2001, dated 2010).

Tests used:
A-549 = test: Inhibition of cells growth by colorimetric assay (SRB), A-549; format: cell-based; settings: for GI50 / LC50 (concentration for 50% cell killing): Homo sapiens, A549, 48 h; for GI50 / A-549 TGI: SRB assay, 48 hours exposure; for GI50: read-out: A-549 GI50; for LC50 (concentration for 50% cell killing): read-out: A-549 LC50, SRB assay, 48 hours exposure
How it was run: (§1)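 SRB read-out at 490 nm after 48 h drug exposure (10 to 10^−8 μg/ml) of cells plated at 5×10^3/well and attached 18 h in drug-free RPMI 1640/10% FBS. Triplicate means give GI, TGI (cytostatic) and LC (cytotoxic).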

SK-MEL-28 = test: Inhibition of cells growth by colorimetric assay (SRB), SK-MEL-28; format: cell-based; settings: for GI50: read-out: MEL-28 GI50
How it was run: as §1

HT-29 = test: Inhibition of cells growth by colorimetric assay (SRB), HT-29; format: cell-based; settings: for GI50 / LC50 (concentration for 50% cell killing): Homo sapiens, HT-29, 48 h; for GI50 / HT-29 TGI: SRB assay, 48 hours exposure; for GI50: read-out: HT-29 GI50; for LC50 (concentration for 50% cell killing): read-out: HT-29 LC50, SRB assay, 48 hours exposure
How it was run: as §1

K-562 = test: Inhibition of cells growth by colorimetric assay (SRB), K-562; format: cell-based
Protocol: (§2) 2°.—Inhibition of Cells Growth by Colorimetric Assay.
(§3) A colorimetric type of assay, using sulforhodamine B (SRB) reaction has been adapted for a quantitative measurement of cell growth and viability [following the technique described by Philip Skehan, et al. (1990), New colorimetric cytotoxicity assay for anticancer drug screening, J. Natl. Cancer Inst., 82:1107-1112]
(§4) This form of the assay employs 96 well cell culture microplates of 9 mm diameter (Faircloth, 1988; Mosmann, 1983). Most of the cell lines are obtained from American Type Culture Collection (ATCC) derived from different human cancer types.
(§5) Cells are maintained in RPMI 1640 10% FBS, supplemented with 0.1 g/l penicillin and 0.1 g/l streptomycin sulfate and then incubated at 37° C., 5% CO2 and 98% humidity. For the experiments, cells were harvested from subconfluent cultures using trypsin and resuspended in fresh medium before plating.
(§6) Cells are seeded in 96 well microtiter plates, at 5×10^3 cells per well in aliquots of 195 μl medium, and they are allowed to attach to the plate surface by growing in drug free medium for 18 hours. Afterward, samples are added in aliquots of 5 μl in a ranging from 10 to 10^−8 μg/ml, dissolved in DMSO/EtOH/PBS (0.5:0.5:99). After 48 hours exposure, the antitumor effect are measured by the SRB methodology: cells are fixed by adding 50 μl of cold 50% (wt/vol) trichloroacetic acid (TCA) and incubating for 60 minutes at 4° C. Plates are washed with deionized water and dried. One hundred μl of SRB solution (0.4% wt/vol in 1% acetic acid) is added to each microtiter well and incubated for 10 minutes at room temperature. Unbound SRB is removed by washing with 1% acetic acid. Plates are air dried and bound stain is solubilized with Tris buffer. Optical densities are read on a automated spectrophotometric plate reader at a single wavelength of 490 nm.
(§7) The values for mean+/−SD of data from triplicate wells are calculated. Some parameters for cellular responses can be calculated: GI=growth inhibition, TGI=total growth inhibition (cytostatic effect) and LC=cell killing (cytotoxic effect).
(§8) Obtained results may predict the usefulness of a certain drug as a potential cancer treatment. For this technique, compounds which show GI50 values smaller than 10 μg/ml are selected to continue with further studies. GI50's data allow to predict that not only could a drug be cystostatic, but also it could have a potential in terms of tumor reduction.

LoVo = test: Inhibition of cells growth by colorimetric assay (SRB), LoVo; format: cell-based
Protocol: as §2, §3, §4, §5, §6, §7, §8

LoVo-Dox = test: Inhibition of cells growth by colorimetric assay (SRB), LoVo-Dox; format: cell-based
Protocol: as §2, §3, §4, §5, §6, §7, §8

DU-145 = test: Inhibition of cells growth by colorimetric assay (SRB), DU-145; format: cell-based
Protocol: as §2, §3, §4, §5, §6, §7, §8

LNCaP = test: Inhibition of cells growth by colorimetric assay (SRB), LNCaP; format: cell-based
Protocol: as §2, §3, §4, §5, §6, §7, §8

SK-BR-3 = test: Inhibition of cells growth by colorimetric assay (SRB), SK-BR-3; format: cell-based
Protocol: as §2, §3, §4, §5, §6, §7, §8

IGROV-1 = test: Inhibition of cells growth by colorimetric assay (SRB), IGROV-1; format: cell-based
Protocol: as §2, §3, §4, §5, §6, §7, §8

IGROV-ET = test: Inhibition of cells growth by colorimetric assay (SRB), IGROV-ET; format: cell-based
Protocol: as §2, §3, §4, §5, §6, §7, §8

SK-OV-3 = test: Inhibition of cells growth by colorimetric assay (SRB), SK-OV-3; format: cell-based
Protocol: as §2, §3, §4, §5, §6, §7, §8

PANC-1 = test: Inhibition of cells growth by colorimetric assay (SRB), PANC-1; format: cell-based
Protocol: as §2, §3, §4, §5, §6, §7, §8

HMEC1 = test: Inhibition of cells growth by colorimetric assay (SRB), HMEC1; format: cell-based
Protocol: as §2, §3, §4, §5, §6, §7, §8

[1] = Homo sapiens, SK-MEL-28, 48 h, SRB assay, 48 hours exposure

Excerpt for Kidney: (§9) Toxicity was asssessed by the methods reported in Toxicology in Vitro, 15 (2001) 571-577, J. Luber Narod et al.: “Evaluation of the use of in vitro methodolodies as tools for screening new compounds for potential in vivo toxicity”.
Excerpt for Liver: as §9
Excerpt for Skeletal: as §9

`COc1cc2c(cc1O)CCN(C)[C@]21CS[C@@H]2c3c(OC(C)=O)c(C)c4c(c3[C@H](COC1=O)N1C2[C@@H]2N[C@@H](Cc3cc(C)c(OC)c(O)c32)[C@@H]1O)OCO4` (stereo partly shown) [Compound 217] was tested, and the GI50 (A-549) was 0.0021 µM, the LC50 (concentration for 50% cell killing) (A-549) was 0.0457 µM and the “A-549 TGI” value (A-549) was 6.16E-09. For the same compound, the GI50 (SK-MEL-28; [1]) was 0.000537 µM, the GI50 (HT-29) was 0.0131 µM and the LC50 (concentration for 50% cell killing) (HT-29) was 13.1 µM. For the same compound, the “HT-29 TGI” value (HT-29) was 1.31E-05, the “Toxicity Data Liver” value (Liver) was 1.07E-09 and the “Toxicity Data Skeletal” value (Skeletal) was 3.37E-12. For the same compound, the “Toxicity Data Kidney” value (Kidney) was 2.66E-13.

With `COc1cc2c(cc1O)CCN[C@]21CS[C@@H]2c3c(O)c(C)c4c(c3[C@H](COC1=O)N1C2[C@H]2c3c(cc(C)c(OC)c3O)C[C@@H]([C@@H]1O)N2C)OCO4` (stereo partly shown) [Et-701] the GI50 (K-562; Homo sapiens, K562, 48 h, SRB assay, 48 hours exposure, read-out: K-562 GI50) was 0.00133 µM, the LC50 (50% cell killing) (K-562; Homo sapiens, K562, 48 h, read-out: K-562 LC50, SRB assay, 48 hours exposure) was 0.0113 µM and the “K-562 TGI” value (K-562; SRB assay, 48 hours exposure) was 3.50E-09. The GI50 (A-549) was 0.00299 µM, the LC50 (concentration for 50% cell killing) (A-549) was 0.0139 µM and the “A-549 TGI” value (A-549) was 7.06E-09. The GI50 (SK-MEL-28; [1]) was 0.00974 µM, the CC50 (SK-MEL-28; Homo sapiens, SK-MEL-28, 48 h, read-out: MEL-28 LC50, SRB assay, 48 hours exposure) was 0.122 µM and the “MEL-28 TGI” value (SK-MEL-28; SRB assay, 48 hours exposure) was 3.50E-08. The GI50 (HT-29) was 0.00424 µM, the LC50 (concentration for 50% cell killing) (HT-29) was 9.56 µM and the “HT-29 TGI” value (HT-29) was 3.72E-08. For the same compound, the GI50 (LoVo; Homo sapiens, LoVo, 48 h, SRB assay, 48 hours exposure, read-out: LOVO GI50) was 0.00456 µM, the LC50 (concentration for 50% cell killing) (LoVo; Homo sapiens, LoVo, 48 h, read-out: LOVO LC50, SRB assay, 48 hours exposure) was 3.75 µM and the “LOVO TGI” value (LoVo; SRB assay, 48 hours exposure) was 1.18E-08. The GI50 (LoVo-Dox; Homo sapiens, 48 h, SRB assay, 48 hours exposure, read-out: LOVO-DOX GI50) was 0.0506 µM, the CC50 (LoVo-Dox; Homo sapiens, 48 h, read-out: LOVO-DOX LC50, SRB assay, 48 hours exposure) was 13.9 µM and the “LOVO-DOX TGI” value (LoVo-Dox; SRB assay, 48 hours exposure) was 5.46E-07. The GI50 (DU-145; Homo sapiens, DU-145, 48 h, SRB assay, 48 hours exposure, read-out: DU-145 GI50) was 0.00404 µM, the CC50 (DU-145; Homo sapiens, DU-145, 48 h, read-out: DU-145 LC50, SRB assay, 48 hours exposure) was 2.97 µM and the “DU-145 TGI” value (DU-145; SRB assay, 48 hours exposure) was 9.70E-09. For the same compound, the GI50 (LNCaP; Homo sapiens, LNCaP, 48 h, read-out: LNCAP GI50, SRB assay, 48 hours exposure) was 0.000324 µM, the CC50 (LNCaP; Homo sapiens, LNCaP, 48 h, read-out: LNCAP LC50, SRB assay, 48 hours exposure) was 0.00528 µM and the “LNCAP TGI” value (LNCaP; SRB assay, 48 hours exposure) was 1.56E-09. For the same compound, the GI50 (SK-BR-3; Homo sapiens, SK-BR-3, 48 h, SRB assay, 48 hours exposure, read-out: SK-BR3 GI50) was 0.00221 µM, the CC50 (SK-BR-3; Homo sapiens, SK-BR-3, 48 h, read-out: SK-BR3 LC50, SRB assay, 48 hours exposure) was 0.0275 µM and the “SK-BR3 TGI” value (SK-BR-3; SRB assay, 48 hours exposure) was 6.25E-09. The GI50 (IGROV-1; Homo sapiens, IGROV-1, 48 h, SRB assay, 48 hours exposure, read-out: IGROV GI50) was 0.00233 µM, the CC50 (IGROV-1; Homo sapiens, IGROV-1, 48 h, read-out: IGROV LC50, SRB assay, 48 hours exposure) was 0.0111 µM and the “IGROV TGI” value (IGROV-1; SRB assay, 48 hours exposure) was 5.08E-09. For the same compound, the GI50 (IGROV-ET; Homo sapiens, 48 h, SRB assay, 48 hours exposure, read-out: IGROV-ET GI50) was 0.0164 µM, the CC50 (IGROV-ET; Homo sapiens, 48 h, read-out: IGROV-ET LC50, SRB assay, 48 hours exposure) was 3.75 µM and the “IGROV-ET TGI” value (IGROV-ET; SRB assay, 48 hours exposure) was 7.78E-08. The GI50 (SK-OV-3; Homo sapiens, SK-OV-3, 48 h, SRB assay, 48 hours exposure, read-out: SK-OV3 GI50) was 0.0021 µM, the LC50 (SK-OV-3; Homo sapiens, SK-OV-3, 48 h, read-out: SK-OV3 LC50, SRB assay, 48 hours exposure) was 9.85 µM and the “SK-OV3 TGI” value (SK-OV-3; SRB assay, 48 hours exposure) was 1.08E-08. The GI50 (PANC-1; Homo sapiens, PANC-1, 48 h, SRB assay, 48 hours exposure, read-out: PANC-1 GI50) was 0.00461 µM, the LC50 (concentration for 50% net cell kill) (PANC-1; Homo sapiens, PANC-1, 48 h, read-out: PANC-1 LC50, SRB assay, 48 hours exposure) was 0.206 µM and the “PANC-1 TGI” value (PANC-1; SRB assay, 48 hours exposure) was 1.19E-08. For the same compound, the GI50 (HMEC1; Homo sapiens, HMEC-1, 48 h, SRB assay, 48 hours exposure, read-out: HMEC-1 GI50) was 0.00399 µM, the LC50 (HMEC1; Homo sapiens, HMEC-1, 48 h, read-out: HMEC-1 LC50, SRB assay, 48 hours exposure) was 4.57 µM and the “HMEC-1 TGI” value (HMEC1; SRB assay, 48 hours exposure) was 1.35E-08.
